{"source": "patent US8008291B2", "about": "(Mimetica Pty Ltd, priority 2008, dated 2011)", "biological_target": "T1, human MC5R (hMC5R) (Homo sapiens, UniProt P33032)", "T1 construct": "purchased Perkin Elmer RBXMC5M400UA", "T1 sequence (P33032 whole entry)": "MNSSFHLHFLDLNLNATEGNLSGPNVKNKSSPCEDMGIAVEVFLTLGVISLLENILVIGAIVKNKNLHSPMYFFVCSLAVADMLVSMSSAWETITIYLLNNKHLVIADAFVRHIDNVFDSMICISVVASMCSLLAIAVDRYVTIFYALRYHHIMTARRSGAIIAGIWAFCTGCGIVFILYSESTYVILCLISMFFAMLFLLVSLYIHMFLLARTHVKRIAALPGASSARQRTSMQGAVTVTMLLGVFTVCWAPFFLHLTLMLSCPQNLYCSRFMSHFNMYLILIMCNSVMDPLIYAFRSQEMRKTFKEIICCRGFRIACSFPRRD", "experiment": "Human MC5R radioligand binding assay (membranes, [125I] NDP-MSH displacement)", "conditions": "hMC5R binding; tested as trifluoroacetate or hydrochloride salts, or free bases; read-out: MC5R radioligand IC50", "procedure,_shortened": "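Displacement of [125I]NDP-MSH (radioiodinated in house, HPLC-purified) from hMC5R membranes by test compound measured after 1 hr incubation at 37° C.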", "data": [{"compound": "CC[C@H](CN1CC[C@@H](CNC(=O)c2ccc(Cl)c(Cl)c2)N[C@@H](CCN2CCC(O)CC2)C1=O)c1ccccc1", "note": "[Compound 450, 3,4-dichloro-N-(((3S,5S)-3-(2-(4-hydroxypiperidin-1-yl)ethyl)-2-oxo-1-((S)-2-phenylbutyl)-1,4-diazepan-5-yl)methyl)benzamide]", "values": [{"measurement": "IC50", "value": "< 100", "unit": "nM"}]}, {"compound": "CC[C@H](CN1CC[C@@H](CNC(=O)c2ccc(Cl)c(Cl)c2)N[C@@H](CCN2CCC(C(=O)O)CC2)C1=O)c1ccccc1", "note": "[Compound 451, 1-(2-((2S,7S)-7-((3,4-dichlorobenzamido)methyl)-3-oxo-4-((S)-2-phenylbutyl)-1,4-diazepan-2-yl)ethyl)piperidine-4-carboxylic acid]", "values": [{"measurement": "IC50", "value": "< 100", "unit": "nM"}]}, {"compound": "CC[C@H](CN1CC[C@@H](CNC(=O)c2ccc(Cl)c(Cl)c2)N[C@@H](CCN2CCCCCC2)C1=O)c1ccccc1", "note": "[Compound 452, N-(((3S,5S)-3-(2-(azepan-1-yl)ethyl)-2-oxo-1-((S)-2-phenylbutyl)-1,4-diazepan-5-yl)methyl)-3,4-dichlorobenzamide]", "values": [{"measurement": "IC50", "value": "< 100", "unit": "nM"}]}, {"compound": "CC[C@H](CN1CC[C@@H](CNC(=O)c2ccc(Cl)c(Cl)c2)N[C@@H](CCN2CCCC[C@@H]2C)C1=O)c1ccccc1", "note": "[Compound 453, 3,4-dichloro-N-(((3S,5S)-3-(2-((S)-2-methylpiperidin-1-yl)ethyl)-2-oxo-1-((S)-2-phenylbutyl)-1,4-diazepan-5-yl)methyl)benzamide]", "values": [{"measurement": "IC50", "value": "< 10", "unit": "nM"}]}, {"compound": "CC[C@H](CN1CC[C@@H](CNC(=O)c2ccc(Cl)c(Cl)c2)N[C@@H](CCN(C)C(C)(C)C)C1=O)c1ccccc1", "note": "[Compound 454, N-(((3S,5S)-3-(2-(tert-butyl(methyl)amino)ethyl)-2-oxo-1-((S)-2-phenylbutyl)-1,4-diazepan-5-yl)methyl)-3,4-dichlorobenzamide]", "values": [{"measurement": "IC50", "value": "< 100", "unit": "nM"}]}, {"compound": "CC[C@H](CN1CCC(CNC(=O)c2ccc3cc(Cl)ccc3c2)NC(C2CCN(CC)CC2)C1=O)c1ccccc1", "note": "(stereo partly drawn) [Compound 455, 6-chloro-N-((3-(1-ethylpiperidin-4-yl)-2-oxo-1-((S)-2-phenylbutyl)-1,4-diazepan-5-yl)methyl)-2-naphthamide]", "values": [{"measurement": "IC50", "value": "< 100", "unit": "nM"}]}, {"compound": "O=C1[C@H](CCN2CCCCC2)N[C@H](CNCc2ccc(Cl)c(Cl)c2)CCN1CC(c1ccccc1)c1ccccc1", "note": "[Compound 456, (3S,5S)-5-((3,4-dichlorobenzylamino)methyl)-1-(2,2-diphenylethyl)-3-(2-(piperidin-1-yl)ethyl)-1,4-diazepan-2-one]", "values": [{"measurement": "IC50", "value": "< 100", "unit": "nM"}]}, {"compound": "CC[C@H](CN1CC[C@@H](CNC(=O)c2ccc3cc(Cl)ccc3c2)N[C@@H](CCNC(=N)N)C1=O)c1ccccc1", "note": "[Compound 457, 6-chloro-N-(((3S,5S)-3-(2-guanidinoethyl)-2-oxo-1-((S)-2-phenylbutyl)-1,4-diazepan-5-yl)methyl)-2-naphthamide]", "values": [{"measurement": "IC50", "value": "< 100", "unit": "nM"}]}, {"compound": "CC[C@H](CN1CC[C@@H](CNC(=O)c2ccc3cc(Cl)ccc3c2)N[C@@H](CCNC(=N)NC)C1=O)c1ccccc1", "note": "[Compound 458, 6-chloro-N-(((3S,5S)-3-(2-(3-methylguanidino)ethyl)-2-oxo-1-((S)-2-phenylbutyl)-1,4-diazepan-5-yl)methyl)-2-naphthamide]", "values": [{"measurement": "IC50", "value": "< 100", "unit": "nM"}]}, {"compound": "CC[C@@H](CN1CC[C@@H](CNC(=O)c2ccc(Cl)c(Cl)c2)N[C@@H](CCN2CCCCC2)C1=O)C(C)C", "note": "[Compound 461, 3,4-dichloro-N-(((3S,5S)-1-((R)-2-ethyl-3-methylbutyl)-2-oxo-3-(2-(piperidin-1-yl)ethyl)-1,4-diazepan-5-yl)methyl)benzamide]", "values": [{"measurement": "IC50", "value": "< 100", "unit": "nM"}]}, {"compound": "CC[C@H](CN1CC[C@@H](CNC(=O)c2ccc(Cl)c(Cl)c2)N[C@@H](CCN2CCCCC2)C1=O)C(C)C", "note": "[Compound 462, 3,4-dichloro-N-(((3S,5S)-1-((S)-2-ethyl-3-methylbutyl)-2-oxo-3-(2-(piperidin-1-yl)ethyl)-1,4-diazepan-5-yl)methyl)benzamide]", "values": [{"measurement": "IC50", "value": "< 100", "unit": "nM"}]}, {"compound": "CC[C@H](CN1CC[C@@H](CNC(=O)c2ccc3cc(Cl)ccc3c2)N[C@@H](CC(C)(C)N)C1=O)c1ccccc1", "note": "[Compound 463, N-(((3S,5S)-3-(2-amino-2-methylpropyl)-2-oxo-1-((S)-2-phenylbutyl)-1,4-diazepan-5-yl)methyl)-6-chloro-2-naphthamide]", "values": [{"measurement": "IC50", "value": "< 1000", "unit": "nM"}]}, {"compound": "CC[C@H](CN1CC[C@@H](CNC(=O)c2ccc(Cl)c(Cl)c2)N[C@@H](CCN)C1=O)c1ccccc1", "note": "[Compound 464, N-(((3S,5S)-3-(2-aminoethyl)-2-oxo-1-((S)-2-phenylbutyl)-1,4-diazepan-5-yl)methyl)-3,4-dichlorobenzamide]", "values": [{"measurement": "IC50", "value": "< 1000", "unit": "nM"}]}, {"compound": "CC[C@H](CN1CC[C@@H](CNC(=O)c2ccc(Cl)c(Cl)c2)N[C@@H](CCNC(C)C)C1=O)c1ccccc1", "note": "[Compound 465, 3,4-dichloro-N-(((3S,5S)-3-(2-(isopropylamino)ethyl)-2-oxo-1-((S)-2-phenylbutyl)-1,4-diazepan-5-yl)methyl)benzamide]", "values": [{"measurement": "IC50", "value": "< 100", "unit": "nM"}]}, {"compound": "NCC[C@@H]1N[C@H](CNC(=O)c2ccc3cc(Cl)ccc3c2)CCN(Cc2cc(Cl)cc(Cl)c2)C1=O", "note": "[Compound 466, N-(((3S,5S)-3-(2-aminoethyl)-1-(3,5-dichlorobenzyl)-2-oxo-1,4-diazepan-5-yl)methyl)-6-chloro-2-naphthamide]", "values": [{"measurement": "IC50", "value": "< 100", "unit": "nM"}]}, {"compound": "O=C(NC[C@@H]1CCN(Cc2cc(Cl)cc(Cl)c2)C(=O)[C@H](CCN2CCCCC2)N1)c1ccc2cc(Cl)ccc2c1", "note": "[Compound 467, 6-chloro-N-(((3S,5S)-1-(3,5-dichlorobenzyl)-2-oxo-3-(2-(piperidin-1-yl)ethyl)-1,4-diazepan-5-yl)methyl)-2-naphthamide]", "values": [{"measurement": "IC50", "value": "< 100", "unit": "nM"}]}, {"compound": "CC[C@@H](CN1CC[C@@H](CNC(=O)c2ccc3cc(Cl)ccc3c2)N[C@@H](CCN)C1=O)C(C)C", "note": "[Compound 469, N-(((3S,5S)-3-(2-aminoethyl)-1-((R)-2-ethyl-3-methylbutyl)-2-oxo-1,4-diazepan-5-yl)methyl)-6-chloro-2-naphthamide]", "values": [{"measurement": "IC50", "value": "< 1000", "unit": "nM"}]}, {"compound": "CC[C@H](CN1CC[C@@H](CNC(=O)c2ccc3cc(Cl)ccc3c2)N[C@@H](CCN)C1=O)C(C)C", "note": "[Compound 470, N-(((3S,5S)-3-(2-aminoethyl)-1-((S)-2-ethyl-3-methylbutyl)-2-oxo-1,4-diazepan-5-yl)methyl)-6-chloro-2-naphthamide]", "values": [{"measurement": "IC50", "value": "< 1000", "unit": "nM"}]}, {"compound": "CC[C@@H](CN1CC[C@@H](CNC(=O)c2ccc3cc(Cl)ccc3c2)N[C@@H](CCN2CCCCC2)C1=O)C(C)C", "note": "[Compound 471, 6-chloro-N-(((3S,5S)-1-((R)-2-ethyl-3-methylbutyl)-2-oxo-3-(2-(piperidin-1-yl)ethyl)-1,4-diazepan-5-yl)methyl)-2-naphthamide]", "values": [{"measurement": "IC50", "value": "< 100", "unit": "nM"}]}, {"compound": "CC[C@H](CN1CC[C@@H](CNC(=O)c2ccc3cc(Cl)ccc3c2)N[C@@H](CCN2CCCCC2)C1=O)C(C)C", "note": "[Compound 472, 6-chloro-N-(((3S,5S)-1-((S)-2-ethyl-3-methylbutyl)-2-oxo-3-(2-(piperidin-1-yl)ethyl)-1,4-diazepan-5-yl)methyl)-2-naphthamide]", "values": [{"measurement": "IC50", "value": "< 100", "unit": "nM"}]}, {"compound": "O=C(O)c1ccc2cc(C(=O)NC[C@@H]3CCN(CC(c4ccccc4)c4ccccc4)C(=O)[C@H](CCN4CCCCC4)N3)ccc2c1", "note": "[Compound 473, 6-(((3S,5S)-1-(2,2-diphenylethyl)-2-oxo-3-(2-(piperidin-1-yl)ethyl)-1,4-diazepan-5-yl)methylcarbamoyl)-2-naphthoic acid]", "values": [{"measurement": "IC50", "value": "< 1000", "unit": "nM"}]}, {"compound": "CC[C@H](CN1CC[C@@H](CNC(=O)c2ccc3cc(Cl)ccc3c2)N[C@@H](CCNC(=N)NC(C)C)C1=O)c1ccccc1", "note": "[Compound 474, 6-chloro-N-(((3S,5S)-3-(2-(3-isopropylguanidino)ethyl)-2-oxo-1-((S)-2-phenylbutyl)-1,4-diazepan-5-yl)methyl)-2-naphthamide]", "values": [{"measurement": "IC50", "value": "< 10", "unit": "nM"}]}, {"compound": "C=C(C)C(CC)CN1CC[C@@H](CNC(=O)c2ccc(Cl)c(Cl)c2)N[C@@H](CCN)C1=O", "note": "(stereo partly drawn) [Compound 475, N-(((3S,5S)-3-(2-aminoethyl)-1-(2-ethyl-3-methylbut-3-enyl)-2-oxo-1,4-diazepan-5-yl)methyl)-3,4-dichlorobenzamide]", "values": [{"measurement": "IC50", "value": "< 10000", "unit": "nM"}]}, {"compound": "C=C(C)C(CC)CN1CC[C@@H](CNC(=O)c2ccc(Cl)c(Cl)c2)N[C@@H](CCN2CCCCC2)C1=O", "note": "(stereo partly drawn) [Compound 476, 3,4-dichloro-N-(((3S,5S)-1-(2-ethyl-3-methylbut-3-enyl)-2-oxo-3-(2-(piperidin-1-yl)ethyl)-1,4-diazepan-5-yl)methyl)benzamide]", "values": [{"measurement": "IC50", "value": "< 1000", "unit": "nM"}]}, {"compound": "C=C(C)C(CC)CN1CC[C@@H](CNC(=O)c2ccc3cc(Cl)ccc3c2)N[C@@H](CCN)C1=O", "note": "(stereo partly drawn) [Compound 477, N-(((3S,5S)-3-(2-aminoethyl)-1-(2-ethyl-3-methylbut-3-enyl)-2-oxo-1,4-diazepan-5-yl)methyl)-6-chloro-2-naphthamide]", "values": [{"measurement": "IC50", "value": "< 10", "unit": "nM"}]}, {"compound": "C=C(C)[C@@H](CC)CN1CC[C@@H](CNC(=O)c2ccc3cc(Cl)ccc3c2)N[C@@H](CCN2CCCCC2)C1=O", "note": "[Compound 478, 6-chloro-N-(((3S,5S)-1-((R)-2-ethyl-3-methylbut-3-enyl)-2-oxo-3-(2-(piperidin-1-yl)ethyl)-1,4-diazepan-5-yl)methyl)-2-naphthamide]", "values": [{"measurement": "IC50", "value": "< 100", "unit": "nM"}]}, {"compound": "C=C(C)[C@H](CC)CN1CC[C@@H](CNC(=O)c2ccc3cc(Cl)ccc3c2)N[C@@H](CCN2CCCCC2)C1=O", "note": "[Compound 479, 6-chloro-N-(((3S,5S)-1-((S)-2-ethyl-3-methylbut-3-enyl)-2-oxo-3-(2-(piperidin-1-yl)ethyl)-1,4-diazepan-5-yl)methyl)-2-naphthamide]", "values": [{"measurement": "IC50", "value": "< 10", "unit": "nM"}]}, {"compound": "N=C(N)NCCC[C@@H]1N[C@H](CNC(=O)c2ccc(-c3ccccc3)cc2)CCN(CC2CCCCC2)C1=O", "note": "[Compound 480, N-(((3S,5S)-1-(cyclohexylmethyl)-3-(3-guanidinopropyl)-2-oxo-1,4-diazepan-5-yl)methyl)biphenyl-4-carboxamide]", "values": [{"measurement": "IC50", "value": "< 1000", "unit": "nM"}]}, {"compound": "N=C(N)NCCC[C@@H]1N[C@H](CNC(=O)Cc2c[nH]c3ccccc23)CCN(CC2CCCCC2)C1=O", "note": "[Compound 481, N-(((3S,5S)-1-(cyclohexylmethyl)-3-(3-guanidinopropyl)-2-oxo-1,4-diazepan-5-yl)methyl)-2-(1 H-indol-3-yl)acetamide]", "values": [{"measurement": "IC50", "value": "< 100", "unit": "nM"}]}]}
